Counter-ions that a name gives are not always drawn.
system: not listed separately; assay: (§1) Toxicity against brine shrimp assessed as impaired swimming movements after 24 hrs; assay type: organism-based, Artemia; conditions: artemia, in vivo

SMILES	LC50 at 24 h [µg/mL]
CO[C@H](C[N+](C)(C)C)c1ccccc1	354
COc1ccc(CC[N+](C)(C)C)cc1	425
COC(C[N+](C)(C)C)c1ccccc1 (racemic)	368
C[N+](C)(C)CCc1ccc(O)cc1 [CANDICINE CHLORIDE]	923
CN1CCC[C@H]1c1cccnc1 [NICOTINE HYDROCHLORIDE]	158
O=C1C[C@@H]2OCC=C3CN4CC[C@]56c7ccccc7N1[C@H]5[C@H]2[C@H]3C[C@H]46 [STRYCHNINE SULFATE]	164

system: Artemia; assay: as §1; assay type: organism-based; conditions: Artemia, 24 h

SMILES	IC50 [µg/mL]
C[N+](C)(C)CC(O)c1ccccc1.[Cl-] (centres undefined)	> 1000
C[N+](C)(C)CCO.[Cl-] [CHOLINE CHLORIDE]	> 1000

same assay, conditions: artemia, in vivo, 24 h

SMILES	LC50 [µg/mL]
CO[C@H](C[N+](C)(C)C)c1ccccc1.[Cl-] [CORYPHANTHINE CHLORIDE]	494
